Assay results: US20100168038A1, “USE OF COMPOUNDS IN COMBINATION WITH GAMMA-IRRADIATION FOR THE TREATMENT OF CANCER” (priority 2006, published 2010)

Columns and labels:
Format in all cases: cell-based, mouse
TPPII = assay: Western blotting of TPPII expression in gamma-irradiated EL-4 cells; conditions: wortmannin treated gamma-irradiated EL-4 cells, 25 micro-M NLVS
Description: (§1) Cells and Culture Conditions. EL-4 is a Benzpyrene-induced lymphoma cell line derived from the C57BI/6 mouse strain. EL-4.wt and EL-4.TPPII^i are EL-4 cells transfected with the pSUPER vector (Brummelkamp, T R, Bernards, R, Agami, R. A system for stable expression of short interfering RNAs in mammalian cells. Science 2002; 296:550-3), empty versus containing the siRNA directed against TPPII. HeLa cells are human cervical carcinoma cells. YAC-1 is a Moloney Leukemia Virus-induced lymphoma cell line derived from the A/Sn mouse strain. ALC is a T cell lymphoma induced by radiation leukemia virus D-RadLV, derived from the C57Bl/6 mouse strain. […]
(§2) Antibodies and Antisera. The following molecules were detected by the antibodies specified: Akt by rabbit anti-Akt serum (Cell Signaling Technology, Beverly, Mass.); Phospho-Akt (Ser 473) by 193H2 rabbit anti-phospho-Akt serum (Cell Signaling Technology, Beverly, Mass.); gamma-H2AX by rabbit anti-gamma-H2AX (Cell Signalling Technology, Beverly, Mass.); Mre11 by polyclonal rabbit anti-human Mre11 (Cell Signalling Technology, Beverly, Mass.); p21 by SX118 (R & D Systems, Minneapolis, Minn.); p53 (R & D Systems, Minneapolis, Minn.); Rae-1 by monoclonal Rat anti-mouse Rae-1, 199215 (R &D Systems, Minneapolis, Minn.); XIAP by monoclonal mouse anti-human XIAP, 117320 (R&D Systems, Minneapolis, Minn.). […]

p53 [1] = assay: Western blotting of p53 expression in gamma-irradiated EL-4.TPPIIi cells; conditions: gamma-irradiated EL-4.TPPIIi cells treated with NLVS
Description: as §1, §2

p53 [2] = assay: Western blotting of p53-immunoprecipitates from EL-4 cell lysates; conditions: NLVS-treated EL-4.TPPIIi cells
Description: Antibodies and Antisera. The following molecules were detected by the antibodies specified: Akt by rabbit anti-Akt serum (Cell Signaling Technology, Beverly, Mass.); Phospho-Akt (Ser 473) by 193H2 rabbit anti-phospho-Akt serum (Cell Signaling Technology, Beverly, Mass.); gamma-H2AX by rabbit anti-gamma-H2AX (Cell Signalling Technology, Beverly, Mass.); Mre11 by polyclonal rabbit anti-human Mre11 (Cell Signalling Technology, Beverly, Mass.); p21 by SX118 (R & D Systems, Minneapolis, Minn.); p53 (R & D Systems, Minneapolis, Minn.); Rae-1 by monoclonal Rat anti-mouse Rae-1, 199215 (R &D Systems, Minneapolis, Minn.); XIAP by monoclonal mouse anti-human XIAP, 117320 (R&D Systems, Minneapolis, Minn.). For detection of TPPII we used chicken anti-TPPII serum (Immunsystem, Uppsala, Sweden). Western blotting was performed by standard techniques. Protein concentration was measured by BCA Protein Assay Reagent (Pierce Chemical Co.). 5 micro-g of protein was loaded per lane for separation by SDS/PAGE unless stated otherwise.

How did the “down regulation of TPPII” value (TPPII) turn out when `CC(C)C[C@@H](/C=C/S(C)(=O)=O)NC(=O)[C@H](CC(C)C)NC(=O)[C@H](CC(C)C)NC(=O)Cc1cc(I)c(O)c([N+](=O)[O-])c1` [NLVS, 4-hydroxy-5-iodo-3-nitrophenylacetyl-Leu-Leu-Leu-vinyl sulphone] was run?
The value was “inhibited down regulation of TPPII”.

What about the p53 expression (p53 [1]) of the same molecule?
Its p53 expression is “increased p53 expression”.

What about the “ATM, 53BP1 and Mre11 in p53-immunoprecipitates” value (p53 [2]) of the same molecule?
The value was “failed to show ATM, 53BP1 and Mre11”.
